Experimental data published in patent US10118930B2, “Piperidinylpyrazolopyrimidinones and their use” (BAYER PHARMA AKTIENGESELLSCHAFT, priority 2015, dated 2018).
Structures can show the parent of a compound that is named as a salt.

Tested on: clot lysis (fibrinolysis) in diluted human citrated plasma, tPA-induced
Test: Plasma-based clot lysis assay (5%)
Type: biochemical
Conditions: human citrated platelet-poor plasma 5%, fibrinogen 3 μM, CaCl2 10 mM, tPA 0.2 nM, 37° C., OD at 405 nm
Outline: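 Clot formation and breakdown triggered by CaCl2 (10 mM final) plus tPA (0.2 nM final) at 37° C, in 5% diluted human plasma supplemented with 3 μM fibrinogen (HEPES/NaCl/Brij buffer, pH 7). IC50 obtained from time courses relative to a blank control.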

Row | IC50 [nM] | Structure (SMILES)
1 | 34 | Cc1nn2c(C3CCNCC3)cc(=O)[nH]c2c1C(=O)N1CCCC(C(C)C)C1 (stereo not shown) [Example 408, 3-[(3-isopropyl-piperidin-1-yl)carbonyl]-2-methyl-7-(piperidin-4-yl) pyrazolo[1,5-a] pyrimidin-5(4H)-one hydrochloride]
2 | 15 | O=c1cc(C2CCNCC2)n2ncc(-c3nc(-c4ccccc4)no3)c2[nH]1 [Example 35, 3-(3-Phenyl-1,2,4-oxadiazol-5-yl)-7-(piperidin-4-yl)pyrazolo[1,5-a]pyrimidin-5(4H)-one hydrochloride]
3 | 28 | Cc1ccc(S(C)(=O)=NC(=O)c2cnn3c(C4CCNCC4)cc(=O)[nH]c23)cc1 (stereo not shown) [Example 36, N-[Methyl(4-methylphenyl)oxido-lambda^6-sulfanylidene]-5-oxo-7-(piperidin-4-yl)-4,5-dihydropyrazolo[1,5-a]pyrimidine-3-carboxamide hydrochloride]
4 | 18 | CCOC(=O)c1c(-c2ccccc2)nn2c(C3CCNCC3)cc(=O)[nH]c12 [Example 38, Ethyl 5-oxo-2-phenyl-7-(piperidin-4-yl)-4,5-dihydropyrazolo[1,5-a]pyrimidine-3-carboxylate trifluoroacetate]
5 | 31 | COc1ccc(Cc2nc(-c3cnn4c(C5CCNCC5)cc(=O)[nH]c34)no2)cn1 [Example 251, 3-{5-[(6-methoxypyridin-3-yl)methyl]-1,2,4-oxadiazol-3-yl}-7-(piperidin-4-yl)pyrazolo[1,5-a]pyrimidin-5(4H)-one hydrochloride]
6 | 32 | CN(Cc1ccccn1)C(=O)c1cnn2c(C3CCNCC3)cc(=O)[nH]c12 [Example 361, N-methyl-5-oxo-7-(piperidin-4-yl)-N-(pyridin-2-ylmethyl)-4,5-dihydropyrazolo[1,5-a]pyrimidine-3-carboxamide hydrochloride]
7 | 32 | Cc1ccc(NC(=O)c2cnn3c(C4CCNCC4)cc(=O)[nH]c23)cc1C [Example 85, N-(3,4-dimethylphenyl)-5-oxo-7-(piperidin-4-yl)-4,5-dihydropyrazolo[1,5-a]pyrimidine-3-carboxamide hydrochloride]
8 | 31 | O=c1cc(C2CCNCC2)n2ncc(-c3nc(-c4cc(Cl)ccc4F)no3)c2[nH]1 [Example 137, 3-[3-(5-Chloro-2-fluorophenyl)-1,2,4-oxadiazol-5-yl]-7-(piperidin-4-yl)pyrazolo[1,5-a]pyrimidin-5(4H)-one hydrochloride]
9 | 30 | Cc1nn2c(C3CCNCC3)cc(=O)[nH]c2c1C(=O)N1CC(C)CC(C)C1 (stereo not shown) [Example 421, 3-[(3,5-dimethyl-piperidin-1-yl)carbonyl]-2-methyl-7-(piperidin-4-yl) pyrazolo[1,5-a] pyrimidin-5(4H)-one hydrochloride]
10 | 38 | Cc1ccc(-c2noc(-c3cnn4c(C5CCNCC5)cc(=O)[nH]c34)n2)cc1F [Example 117, 3-[3-(3-Fluoro-4-methylphenyl)-1,2,4-oxadiazol-5-yl]-7-(piperidin-4-yl)pyrazolo[1,5-a]pyrimidin-5(4H)-one hydrochloride]
11 | 11 | O=C(c1cnn2c(C3CCNCC3)cc(=O)[nH]c12)C1CCCC1 [Example 451, 3-(cyclopentylcarbonyl)-7-(piperidin-4-yl)pyrazolo[1,5-a]pyrimidin-5(4H)-one hydrochloride]
12 | 15 | COc1ccc(-c2cnn3c(C4CCNCC4)cc(=O)[nH]c23)cc1 [Example 53, 3-(4-Methoxyphenyl)-7-(piperidin-4-yl)pyrazolo[1,5-a]pyrimidin-5(4H)-one hydrochloride]
13 | 20 | O=c1cc(C2CCNCC2)n2ncc(-c3nnc(Cc4ccc(Cl)cc4)o3)c2[nH]1 [Example 284, 3-[5-(4-chlorobenzyl)-1,3,4-oxadiazol-2-yl]-7-(piperidin-4-yl)pyrazolo[1,5-a]pyrimidin-5(4H)-one hydrochloride]
14 | 27 | Cc1nn2c(C3CCNCC3)cc(=O)[nH]c2c1-c1nc(-c2ccc(C(F)(F)F)cc2)no1 [Example 442, 2-methyl-7-(piperidin-4-yl)-3-{3-[4-(trifluoromethyl)phenyl]-1,2,4-oxadiazol-5-yl}pyrazolo[1,5-a]pyrimidin-5(4H)-one hydrochloride]
15 | 9 | O=C(c1cnn2c(C3CCNCC3)cc(=O)[nH]c12)N1CCCCC1 [Example 327, 7-(piperidin-4-yl)-3-(piperidin-1-ylcarbonyl)pyrazolo[1,5-a]pyrimidin-5(4H)-one hydrochloride]
16 | 14 | COC(=O)c1cnn2c(C3CCNCC3)cc(=O)[nH]c12 [Example 357, Methyl 5-oxo-7-(piperidin-4-yl)-4,5-dihydropyrazolo[1,5-a]pyrimidine-3-carboxylate hydrochloride]
17 | 26 | O=c1cc(C2CCNCC2)n2ncc(-c3nnc(-c4ccccc4Cl)o3)c2[nH]1 [Example 290, 3-[5-(2-chlorophenyl)-1,3,4-oxadiazol-2-yl]-7-(piperidin-4-yl)pyrazolo[1,5-a]pyrimidin-5(4H)-one hydrochloride]

Row | IC50 [nM] | Structure (SMILES)
18 | 31 | CC(C)(c1ccccc1)c1noc(-c2cnn3c(C4CCNCC4)cc(=O)[nH]c23)n1 [Example 223, 3-[3-(2-phenylpropan-2-yl)-1,2,4-oxadiazol-5-yl]-7-(piperidin-4-yl)pyrazolo[1,5-a]pyrimidin-5(4H)-one hydrochloride]
19 | 85 | Cc1nn2c(C3CCNCC3)cc(=O)[nH]c2c1C(=O)OCCC(F)(F)F [Example 466, 3,3,3-trifluoropropyl 2-methyl-5-oxo-7-(piperidin-4-yl)-4,5-dihydropyrazolo[1,5-a]pyrimidine-3-carboxylate hydrochloride]
20 | 81 | Cc1cc(F)ccc1NC(=O)c1cnn2c(C3CCNCC3)cc(=O)[nH]c12 [Example 81, N-(4-fluoro-2-methylphenyl)-5-oxo-7-(piperidin-4-yl)-4,5-dihydropyrazolo[1,5-a]pyrimidine-3-carboxamide]
21 | 82 | C[C@@H]1CCN(C(=O)c2cnn3c(C4CCNCC4)cc(=O)[nH]c23)C1 [Example 321, 3-{[(3R)-3-methylpyrrolidin-1-yl]carbonyl}-7-(piperidin-4-yl)pyrazolo[1,5-a]pyrimidin-5(4H)-one hydrochloride]
22 | 55 | Nc1cccc(-c2noc(-c3cnn4c(C5CCNCC5)cc(=O)[nH]c34)n2)c1 [Example 208, 3-[3-(3-aminophenyl)-1,2,4-oxadiazol-5-yl]-7-(piperidin-4-yl)pyrazolo[1,5-a]pyrimidin-5 (4H)-one hydrochloride]
23 | 37 | CC(C)(C)c1ccc(-c2nnc(-c3cnn4c(C5CCNCC5)cc(=O)[nH]c34)o2)cc1 [Example 179, 3-[5-(4-tert-butylphenyl)-1,3,4-oxadiazol-2-yl]-7-(piperidin-4-yl)pyrazolo[1,5-a]pyrimidin-5 (4H)-one hydrochloride]
24 | 35 | O=c1cc(C2CCNCC2)n2ncc(-c3noc(-c4cccc(Cl)c4)n3)c2[nH]1 [Example 226, 3-[5-(3-chlorophenyl)-1,2,4-oxadiazol-3-yl]-7-(piperidin-4-yl)pyrazolo[1,5-a]pyrimidin-5 (4H)-one hydrochloride]
25 | 17 | COc1c(F)cc(Cc2nnc(-c3cnn4c(C5CCNCC5)cc(=O)[nH]c34)o2)cc1F [Example 444, 3-[5-(3,5-difluoro-4-methoxybenzyl)-1,3,4-oxadiazol-2-yl]-7-(piperidin-4-yl)pyrazolo[1,5-a]pyrimidin-5(4H)-one hydrochloride]
26 | 30 | O=C(Nc1cccc(Cl)c1F)c1cnn2c(C3CCNCC3)cc(=O)[nH]c12 [Example 87, N-(3-chloro-2-fluorophenyl)-5-oxo-7-(piperidin-4-yl)-4,5-dihydropyrazolo[1,5-a]pyrimidine-3-carboxamide hydrochloride]
27 | 30 | O=c1cc(C2CCNCC2)n2ncc(-c3noc(C4CCC(F)(F)CC4)n3)c2[nH]1 [Example 393, 3-(5-(4,4-difluorocyclohexyl)-1,2,4-oxadiazol-3-yl)-7-(piperidin-4-yl)pyrazolo[1,5-a]pyrimidin-5(4H)-one hydrochloride]
28 | 27 | O=c1cc(C2CCNCC2)n2ncc(-c3nnc(-c4cccs4)o3)c2[nH]1 [Example 288, 7-(piperidin-4-yl)-3-[5-(thiophen-2-yl)-1,3,4-oxadiazol-2-yl]pyrazolo[1,5-a]pyrimidin-5 (4H)-one hydrochloride]
29 | 27 | O=c1cc(C2CCNCC2)n2ncc(-c3nnc(CC(F)(F)F)o3)c2[nH]1 [Example 289, 7-(piperidin-4-yl)-3-[5-(2,2,2-trifluoroethyl)-1,3,4-oxadiazol-2-yl]pyrazolo[1,5-a]pyrimidin-5(4H)-one hydrochloride]
30 | 27 | COCCc1noc(-c2c(C)nn3c(C4CCNCC4)cc(=O)[nH]c23)n1 [Example 297, 3-[3-(2-methoxyethyl)-1,2,4-oxadiazol-5-yl]-2-methyl-7-(piperidin-4-yl)pyrazolo[1,5-a]pyrimidin-5(4H)-one hydrochloride]
31 | 34 | Cc1ccc(-c2nnc(-c3cnn4c(C5CCNCC5)cc(=O)[nH]c34)o2)cc1 [Example 170, 3-[5-(4-methylphenyl)-1,3,4-oxadiazol-2-yl]-7-(piperidin-4-yl)pyrazolo[1,5-a]pyrimidin-5 (4H)-one hydrochloride]
32 | 64 | O=c1cc(C2CCNCC2)n2ncc(-c3ccc(F)c(Cl)c3)c2[nH]1 [Example 72, 3-(3-Chloro-4-fluorophenyl)-7-(piperidin-4-yl)pyrazolo[1,5-a]pyrimidin-5(4H)-one hydrochloride]
33 | 11 | Cc1ccc(-c2noc(-c3c(C)nn4c(C5CCNCC5)cc(=O)[nH]c34)n2)cc1 [Example 306, 2-methyl-3-[3-(4-methylphenyl)-1,2,4-oxadiazol-5-yl]-7-(piperidin-4-yl)pyrazolo[1,5-a]pyrimidin-5(4H)-one hydrochloride]

Row | Structure (SMILES) | IC50 [nM]
34 | Cc1nn2c(C3CCNCC3)cc(=O)[nH]c2c1C#N [Example 8, 2-Methyl-5-oxo-7-(piperidin-4-yl)-4,5-dihydropyrazolo[1,5-a]pyrimidine-3-carbonitrile trifluoroacetate] | 29
